Test results: patent US9447038B2 (SANOFI, priority 2012, dated 2016)

Target: human CXCR3-A receptor (Homo sapiens (Human), UniProt P49682)
Assay: 125I-CXCL10 competition radioligand binding assay;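 further: One-hour incubation of membranes with tracer, bound radioligand separated by glass fibre filtration, IC50 derived from four-parameter nonlinear fit of competition curves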
Settings: displacement of 125I-CXCL10 from membranes of CHO cells expressing human recombinant CXCR3-A

Chain of human CXCR3-A receptor (P49682 whole entry): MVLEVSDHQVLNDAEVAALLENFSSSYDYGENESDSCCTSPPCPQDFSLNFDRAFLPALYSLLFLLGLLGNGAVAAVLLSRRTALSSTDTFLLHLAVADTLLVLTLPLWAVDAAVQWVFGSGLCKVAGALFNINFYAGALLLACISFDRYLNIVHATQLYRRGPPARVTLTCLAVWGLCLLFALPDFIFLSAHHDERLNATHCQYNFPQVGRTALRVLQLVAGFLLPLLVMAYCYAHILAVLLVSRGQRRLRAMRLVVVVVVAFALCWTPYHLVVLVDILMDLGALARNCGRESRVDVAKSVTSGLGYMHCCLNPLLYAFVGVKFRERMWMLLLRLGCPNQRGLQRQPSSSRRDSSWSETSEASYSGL

| IC50 | SMILES |
| --- | --- |
| 212 nM | O=C(O)CC(c1ccc(Cl)cc1)N(Cc1ccc(OCCN2C(=O)CCC2=O)c(F)c1)CC1CCCCC1 (centres unmarked) [Example 57, 3-(4-Chloro-phenyl)-3-(cyclohexylmethyl-{4-[2-(2,5-dioxo-pyrrolidin-1-yl)-ethoxy]-3-fluoro-benzyl}-amino)-propionic acid] |
| 183 nM | CCCN(Cc1ccc(OCCN2C(=O)CCC2=O)c(F)c1)C(CC(=O)O)c1ccc(Cl)c(F)c1 (centres unmarked) [Example 58, 3-(4-Chloro-3-fluoro-phenyl)-3-({4-[2-(2,5-dioxo-pyrrolidin-1-yl)-ethoxy]-3-fluoro-benzyl}-propyl-amino)-propionic acid] |
| 109 nM | CCCCN(Cc1ccc(OCCN2C(=O)CCC2=O)c(F)c1)C(CC(=O)O)c1ccc(Cl)c(F)c1 (centres unmarked) [Example 59, 3-(Butyl-{4-[2-(2,5-dioxo-pyrrolidin-1-yl)-ethoxy]-3-fluoro-benzyl}-amino)-3-(4-chloro-3-fluoro-phenyl)-propionic acid] |
| 243 nM | O=C(O)CC(c1ccc(Cl)c(F)c1)N(Cc1ccc(OCCN2C(=O)CCC2=O)c(F)c1)CC1CCCC1 (centres unmarked) [Example 60, 3-(4-Chloro-3-fluoro-phenyl)-3-(cyclopentylmethyl-{4-[2-(2,5-dioxo-pyrrolidin-1-yl)-ethoxy]-3-fluoro-benzyl}-amino)-propionic acid] |
| 334 nM | O=C(O)CC(c1ccc(Cl)c(F)c1)N(Cc1ccc(OCCN2C(=O)CCC2=O)c(F)c1)CC1CCCCC1 (centres unmarked) [Example 61, 3-(4-Chloro-3-fluoro-phenyl)-3-(cyclohexylmethyl-{4-[2-(2,5-dioxo-pyrrolidin-1-yl)-ethoxy]-3-fluoro-benzyl}-amino)-propionic acid] |
| 503 nM | CCCN(Cc1ccc(OCCN2C(=O)CCC2=O)c(F)c1)C(CC(=O)O)c1ccc(Cl)c(Cl)c1 (centres unmarked) [Example 62, 3-(3,4-Dichloro-phenyl)-3-({4-[2-(2,5-dioxo-pyrrolidin-1-yl)-ethoxy]-3-fluoro-benzyl}-propyl-amino)-propionic acid] |
| 303 nM | CC(C)CN(Cc1ccc(OCCN2C(=O)CCC2=O)c(F)c1)C(CC(=O)O)c1ccc(Cl)c(Cl)c1 (centres unmarked) [Example 63, 3-(3,4-Dichloro-phenyl)-3-({4-[2-(2,5-dioxo-pyrrolidin-1-yl)-ethoxy]-3-fluoro-benzyl}-isobutyl-amino)-propionic acid] |
| 456 nM | CCCCN(Cc1ccc(OCCN2C(=O)CCC2=O)c(F)c1)C(CC(=O)O)c1ccc(Cl)c(Cl)c1 (centres unmarked) [Example 64, 3-(Butyl-{4-[2-(2,5-dioxo-pyrrolidin-1-yl)-ethoxy]-3-fluoro-benzyl}-amino)-3-(3,4-dichloro-phenyl)-propionic acid] |
| 186 nM | O=C(O)CC(c1ccc(Cl)c(Cl)c1)N(Cc1ccc(OCCN2C(=O)CCC2=O)c(F)c1)CC1CCCC1 (centres unmarked) [Example 65, 3-(Cyclopentylmethyl-{4-[2-(2,5-dioxo-pyrrolidin-1-yl)-ethoxy]-3-fluoro-benzyl}-amino)-3-(3,4-dichloro-phenyl)-propionic acid] |
| 54 nM | Cc1cc(CN(CC2CCC2)[C@@H](CC(=O)O)c2ccc(Cl)cc2)ccc1OCCN1C(=O)CCC1=O [Example 71, (S)-3-(4-Chloro-phenyl)-3-(cyclobutylmethyl-{4-[2-(2,5-dioxo-pyrrolidin-1-yl)-ethoxy]-3-methyl-benzyl}-amino)-propionic acid] |
| 34 nM | Cc1cc(CN(CC2CC2)C(CC(=O)O)c2ccc(Cl)c(F)c2)ccc1OCCN1C(=O)CCC1=O (centres unmarked) [Example 74, 3-(4-Chloro-3-fluoro-phenyl)-3-(cyclopropylmethyl-{4-[2-(2,5-dioxo-pyrrolidin-1-yl)-ethoxy]-3-methyl-benzyl}-amino)-propionic acid] |
| 25 nM | CCCN(Cc1ccc(OCCN2C(=O)CCC2=O)c(C)c1)C(CC(=O)O)c1ccc(Cl)c(F)c1 (centres unmarked) [Example 75, 3-(4-Chloro-3-fluoro-phenyl)-3-({4-[2-(2,5-dioxo-pyrrolidin-1-yl)-ethoxy]-3-methyl-benzyl}-propyl-amino)-propionic acid] |
| 54 nM | CCCCN(Cc1ccc(OCCN2C(=O)CCC2=O)c(C)c1)C(CC(=O)O)c1ccc(Cl)c(F)c1 (centres unmarked) [Example 76, 3-(Butyl-{4-[2-(2,5-dioxo-pyrrolidin-1-yl)-ethoxy]-3-methyl-benzyl}-amino)-3-(4-chloro-3-fluoro-phenyl)-propionic acid] |
| 72 nM | Cc1cc(CN(CC2CCCCC2)C(CC(=O)O)c2ccc(Cl)c(F)c2)ccc1OCCN1C(=O)CCC1=O (centres unmarked) [Example 78, 3-(4-Chloro-3-fluoro-phenyl)-3-(cyclohexylmethyl-{4-[2-(2,5-dioxo-pyrrolidin-1-yl)-ethoxy]-3-methyl-benzyl}-amino)-propionic acid] |
| 116 nM | CCCN(Cc1ccc(OCCN2C(=O)CCC2=O)c(C)c1)C(CC(=O)O)c1ccc(Cl)c(Cl)c1 (centres unmarked) [Example 79, 3-(3,4-Dichloro-phenyl)-3-({4-[2-(2,5-dioxo-pyrrolidin-1-yl)-ethoxy]-3-methyl-benzyl}-propyl-amino)-propionic acid] |
| 100 nM | CCCCN(Cc1ccc(OCCN2C(=O)CCC2=O)c(C)c1)C(CC(=O)O)c1ccc(Cl)c(Cl)c1 (centres unmarked) [Example 81, 3-(Butyl-{4-[2-(2,5-dioxo-pyrrolidin-1-yl)-ethoxy]-3-methyl-benzyl}-amino)-3-(3,4-dichloro-phenyl)-propionic acid] |
| 119 nM | Cc1cc(CN(CC2CCCC2)C(CC(=O)O)c2ccc(Cl)c(Cl)c2)ccc1OCCN1C(=O)CCC1=O (centres unmarked) [Example 82, 3-(Cyclopentylmethyl-{4-[2-(2,5-dioxo-pyrrolidin-1-yl)-ethoxy]-3-methyl-benzyl}-amino)-3-(3,4-dichloro-phenyl)-propionic acid] |
| 302 nM | Cc1cc(CN(CC2CCCCC2)C(CC(=O)O)c2ccc(Cl)c(Cl)c2)ccc1OCCN1C(=O)CCC1=O (centres unmarked) [Example 83, 3-(Cyclohexylmethyl-{4-[2-(2,5-dioxo-pyrrolidin-1-yl)-ethoxy]-3-methyl-benzyl}-amino)-3-(3,4-dichloro-phenyl)-propionic acid] |
| 45 nM | CCc1cc(CN(CC2CC2)C(CC(=O)O)c2ccc(Cl)cc2)ccc1OCCN1C(=O)CCC1=O (centres unmarked) [Example 84, 3-(4-Chloro-phenyl)-3-(cyclopropylmethyl-{4-[2-(2,5-dioxo-pyrrolidin-1-yl)-ethoxy]-3-ethyl-benzyl}-amino)-propionic acid] |
| 58 nM | CCCN(Cc1ccc(OCCN2C(=O)CCC2=O)c(CC)c1)C(CC(=O)O)c1ccc(Cl)cc1 (centres unmarked) [Example 85, 3-(4-Chloro-phenyl)-3-({4-[2-(2,5-dioxo-pyrrolidin-1-yl)-ethoxy]-3-ethyl-benzyl}-propyl-amino)-propionic acid] |
| 12 nM | CCc1cc(CN(CC(C)C)C(CC(=O)O)c2ccc(Cl)cc2)ccc1OCCN1C(=O)CCC1=O (centres unmarked) [Example 86, 3-(4-Chloro-phenyl)-3-({4-[2-(2,5-dioxo-pyrrolidin-1-yl)-ethoxy]-3-ethyl-benzyl}-isobutyl-amino)-propionic acid] |
| 31 nM | CCCCN(Cc1ccc(OCCN2C(=O)CCC2=O)c(CC)c1)C(CC(=O)O)c1ccc(Cl)cc1 (centres unmarked) [Example 87, 3-(Butyl-{4-[2-(2,5-dioxo-pyrrolidin-1-yl)-ethoxy]-3-ethyl-benzyl}-amino)-3-(4-chloro-phenyl)-propionic acid] |
| 70 nM | CCc1cc(CN(CC2CCC2)[C@@H](CC(=O)O)c2ccc(Cl)cc2)ccc1OCCN1C(=O)CCC1=O [Example 88, (S)-3-(4-Chloro-phenyl)-3-(cyclobutylmethyl-{4-[2-(2,5-dioxo-pyrrolidin-1-yl)-ethoxy]-3-ethyl-benzyl}-amino)-propionic acid] |
